Laboratory results reported in ChEMBL document CHEMBL1201862, “PubChem BioAssay data set” (2004).
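Method: 48-hour compound exposure of cells in 96-well plates, five concentrations, linear interpolation of endpoints. Here, GI50 denotes the concentration required for 50% inhibition of growth.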 Calls of active or inactive are those of the source. No stated cut-off is given here; in the data, active = GI50 up to about 1.1 µM and inactive = higher.

Columns and labels:
Assay in all cases: NCI anticancer screen, dose series, 48 h
786-0 = tested on: 786-0
A498 = tested on: A498
A549 = tested on: A549
ACHN = tested on: ACHN
BT-549 = tested on: BT-549
CAKI-1 = tested on: CAKI-1
CCRF-CEM = tested on: CCRF-CEM
COLO 205 = tested on: COLO 205
DU-145 = tested on: DU-145
EKVX = tested on: EKVX
HCC 2998 = tested on: HCC 2998
HCT-116 = tested on: HCT-116
HCT-15 = tested on: HCT-15
HL-60 = tested on: HL-60
HOP-62 = tested on: HOP-62
HOP-92 = tested on: HOP-92
HT-29 = tested on: HT-29
Hs-578T = tested on: Hs-578T
IGROV-1 = tested on: IGROV-1
K562 = tested on: K562
KM12 = tested on: KM12
LOX IMVI = tested on: LOX IMVI
M14 = tested on: M14
MCF7 = tested on: MCF7
MDA-MB-231 = tested on: MDA-MB-231
MDA-MB-435 = tested on: MDA-MB-435
MDA-N = tested on: MDA-N
MOLT-4 = tested on: MOLT-4
Malme-3M = tested on: Malme-3M
NCI-H226 = tested on: NCI-H226
NCI-H23 = tested on: NCI-H23
NCI-H460 = tested on: NCI-H460
NCI-H522 = tested on: NCI-H522
NCI/ADR-RES = tested on: NCI/ADR-RES
OVCAR-3 = tested on: OVCAR-3
OVCAR-4 = tested on: OVCAR-4
OVCAR-5 = tested on: OVCAR-5
OVCAR-8 = tested on: OVCAR-8
PC-3 = tested on: PC-3
RPMI-8226 = tested on: RPMI-8226
RXF 393 = tested on: RXF 393
SF-268 = tested on: SF-268
SF-295 = tested on: SF-295
SF-539 = tested on: SF-539
SK-MEL-28 = tested on: SK-MEL-28
SK-MEL-2 = tested on: SK-MEL-2
SK-MEL-5 = tested on: SK-MEL-5
SK-OV-3 = tested on: SK-OV-3
SN12C = tested on: SN12C
SNB-19 = tested on: SNB-19
SNB-75 = tested on: SNB-75
SR = tested on: SR
SW-620 = tested on: SW-620
T47D = tested on: T47D
TK-10 = tested on: TK-10
U-251 = tested on: U-251
UACC-257 = tested on: UACC-257
UACC-62 = tested on: UACC-62
UO-31 = tested on: UO-31

COC(=O)CC1(O)C=CC(=O)C=C1 [JACARANONE]
GI50 (786-0): 2.88 µM (inactive)
GI50 (A498): 7.16 µM (inactive)
GI50 (A549): 8.67 µM (inactive)
GI50 (ACHN): 2.99 µM (inactive)
GI50 (BT-549): 5.02 µM (inactive)
GI50 (CAKI-1): 3.83 µM (inactive)
GI50 (CCRF-CEM): 1.99 µM (inactive)
GI50 (COLO 205): 4.68 µM (inactive)
GI50 (DU-145): 5.06 µM (inactive)
GI50 (EKVX): 4.02 µM (inactive)
GI50 (HCC 2998): 15.3 µM (inactive)
GI50 (HCT-116): 9.77 µM (inactive)
GI50 (HCT-15): 3.01 µM
GI50 (HL-60): 2.59 µM (inactive)
GI50 (HOP-62): 6.76 µM (inactive)
GI50 (HOP-92): 8.07 µM (inactive)
GI50 (HT-29): 6.24 µM (inactive)
GI50 (Hs-578T): 8.55 µM (inactive)
GI50 (IGROV-1): 2.02 µM (inactive)
GI50 (K562): 3.76 µM (inactive)
GI50 (KM12): 1.74 µM (inactive)
GI50 (LOX IMVI): 2.51 µM (inactive)
GI50 (M14): 4.18 µM (inactive)
GI50 (MCF7): 2.97 µM (inactive)
GI50 (MDA-MB-231): 2.66 µM (inactive)
GI50 (MDA-MB-435): 6.47 µM (inactive)
GI50 (MDA-N): 6.35 µM (inactive)
GI50 (MOLT-4): 1.05 µM (active)
GI50 (Malme-3M): 2.81 µM (inactive)
GI50 (NCI-H226): 8.61 µM (inactive)
GI50 (NCI-H23): 2.96 µM (inactive)
GI50 (NCI-H460): 2.2 µM (inactive)
GI50 (NCI-H522): 1.39 µM (inactive)
GI50 (NCI/ADR-RES): 3.63 µM (inactive)
GI50 (OVCAR-3): 3.91 µM (inactive)
GI50 (OVCAR-4): 3.82 µM (inactive)
GI50 (OVCAR-5): 8.99 µM (inactive)
GI50 (OVCAR-8): 3.4 µM (inactive)
GI50 (PC-3): 2.57 µM (inactive)
GI50 (RPMI-8226): 5.45 µM (inactive)
GI50 (RXF 393): 3.36 µM (inactive)
GI50 (SF-268): 3.18 µM (inactive)
GI50 (SF-295): 5.13 µM (inactive)
GI50 (SF-539): 3.53 µM (inactive)
GI50 (SK-MEL-28): 2.38 µM (inactive)
GI50 (SK-MEL-2): 4.63 µM (inactive)
GI50 (SK-MEL-5): 3.29 µM (inactive)
GI50 (SK-OV-3): 14.1 µM (inactive)
GI50 (SN12C): 9.31 µM (inactive)
GI50 (SNB-19): 5.48 µM (inactive)
GI50 (SNB-75): 5.43 µM (inactive)
GI50 (SR): 2.47 µM (inactive)
GI50 (SW-620): 4.76 µM (inactive)
GI50 (T47D): 5.42 µM (inactive)
GI50 (TK-10): 4.81 µM (inactive)
GI50 (U-251): 3.52 µM (inactive)
GI50 (UACC-257): 2.65 µM (inactive)
GI50 (UACC-62): 2.13 µM (inactive)
GI50 (UO-31): 2.96 µM (inactive)
